Key:
NA transporter = molecular target: T1, NA transporter (Rattus norvegicus, UniProt Q63380); assay: Noradrenalin uptake inhibition in rat brain synaptosomes (hypothalamus); format: biochemical
T1 construct: from tissue; host or cells: rat hypothalamus synaptosomes (P2 fraction)
Procedure, shortened: (§1)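 Freshly isolated P2 synaptosomes from rat hypothalamus (noradrenalin) or medulla and pons (5-HT) incubated at room temperature under O2 with [3H]-NA for 7.5 min or [3H]-5-HT for 5 min. Uptake measured by filtration and scintillation counting.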

mGluR5 receptor = molecular target: T2, mGluR5 receptor (Sus scrofa, UniProt I3LUI7); assay: Affinity for the mGluR5 receptor ([3H]-MPEP binding, pig brain homogenate); conditions: 10 μM compound, 15 nM [3H]-MPEP
T2 construct: 450 μg of protein from brain homogenate is incubated; from tissue; host or cells: pig brain hemispheres without medulla, cerebellum and pons
Method: III. Method for Determining Affinity for the mGluR5 Receptor
Pig brain homogenate is produced by homogenisation (Polytron Pt 3000, Kinematica AG, 10,000 rpm (revolutions per minute) for 90 seconds) of pig brain hemispheres without medulla, cerebellum and pons in a buffer of pH 8.0 (30 mM Hepes, Sigma, order number H3375+1 tablet Complete Roche Diagnostics, order number 1836145 made up to 100 ml) in a ratio of 1:20 (brain weight/volume) and differential centrifugation at 900 g and 40,000 g. 450 μg of protein from brain homogenate is incubated in each case in 250 μl incubation batches in 96-well microtitre plates with 15 nM ^3[H]-MPEP (Tocris, order number R1212) and the compounds to be investigated (in each case 10 μM in the test) in the above-stated buffer at room temperature for 60 minutes.
The batches are then filtered with the assistance of a Brandel Cell Harvester (Brandel, Grade Robotic 9600) on Unifilter plates with glass filter mats (Perkin Elmer, order number 6005177) and then rewashed 3 times with buffer of the above-stated composition using 250 μl per sample. The filter plates are then dried for 60 minutes at 55° C. Then 30 μl of Ultima Gold scintillating material (Packard BioScience, order number 6013159) is added per well and after 3 hours the samples are measured using the B counter ([…], Perkin Elmer). Nonspecific binding is determined by the addition of 10 μM 2-methyl-6-(phenylethynyl)-pyridine (Tocris, order number 1212).

5-HT transporter = molecular target: T3, 5-HT transporter (Rattus norvegicus, UniProt P31652); assay: 5-HT uptake inhibition in rat brain synaptosomes (medulla and pons); format: biochemical
T3 construct: from tissue; host or cells: rat medulla and pons synaptosomes (P2 fraction)
Procedure, shortened: as §1

T2 sequence (I3LUI7 19-1212): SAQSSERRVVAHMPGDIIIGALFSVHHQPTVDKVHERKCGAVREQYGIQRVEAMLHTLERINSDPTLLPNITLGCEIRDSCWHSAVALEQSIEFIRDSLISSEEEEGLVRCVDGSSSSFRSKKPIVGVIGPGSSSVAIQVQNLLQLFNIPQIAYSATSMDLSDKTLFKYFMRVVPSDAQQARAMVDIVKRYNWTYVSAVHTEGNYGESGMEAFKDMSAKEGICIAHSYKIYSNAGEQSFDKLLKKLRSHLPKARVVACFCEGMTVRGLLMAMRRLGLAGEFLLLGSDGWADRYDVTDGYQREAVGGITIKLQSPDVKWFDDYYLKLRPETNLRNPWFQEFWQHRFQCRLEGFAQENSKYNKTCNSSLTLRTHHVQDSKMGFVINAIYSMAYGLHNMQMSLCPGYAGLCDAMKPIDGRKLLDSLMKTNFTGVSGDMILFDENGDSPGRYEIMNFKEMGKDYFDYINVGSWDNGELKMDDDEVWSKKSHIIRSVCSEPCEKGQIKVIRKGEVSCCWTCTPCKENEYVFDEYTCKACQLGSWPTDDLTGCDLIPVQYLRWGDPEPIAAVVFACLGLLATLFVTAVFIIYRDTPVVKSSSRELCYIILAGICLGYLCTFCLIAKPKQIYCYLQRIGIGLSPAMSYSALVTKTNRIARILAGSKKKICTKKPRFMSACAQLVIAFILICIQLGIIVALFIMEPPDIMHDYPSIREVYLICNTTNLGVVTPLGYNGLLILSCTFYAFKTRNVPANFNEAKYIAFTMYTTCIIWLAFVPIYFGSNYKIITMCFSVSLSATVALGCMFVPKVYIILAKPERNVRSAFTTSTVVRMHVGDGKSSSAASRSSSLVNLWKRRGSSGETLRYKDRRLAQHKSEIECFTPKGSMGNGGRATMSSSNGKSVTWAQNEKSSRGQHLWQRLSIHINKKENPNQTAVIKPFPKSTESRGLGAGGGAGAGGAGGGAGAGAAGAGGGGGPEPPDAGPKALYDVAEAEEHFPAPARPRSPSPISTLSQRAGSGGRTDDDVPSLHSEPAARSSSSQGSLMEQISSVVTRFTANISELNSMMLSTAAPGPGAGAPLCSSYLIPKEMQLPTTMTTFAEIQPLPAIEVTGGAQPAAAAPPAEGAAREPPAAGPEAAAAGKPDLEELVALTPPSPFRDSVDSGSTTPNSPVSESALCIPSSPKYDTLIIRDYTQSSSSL
T1 sequence (Q63380 1-617): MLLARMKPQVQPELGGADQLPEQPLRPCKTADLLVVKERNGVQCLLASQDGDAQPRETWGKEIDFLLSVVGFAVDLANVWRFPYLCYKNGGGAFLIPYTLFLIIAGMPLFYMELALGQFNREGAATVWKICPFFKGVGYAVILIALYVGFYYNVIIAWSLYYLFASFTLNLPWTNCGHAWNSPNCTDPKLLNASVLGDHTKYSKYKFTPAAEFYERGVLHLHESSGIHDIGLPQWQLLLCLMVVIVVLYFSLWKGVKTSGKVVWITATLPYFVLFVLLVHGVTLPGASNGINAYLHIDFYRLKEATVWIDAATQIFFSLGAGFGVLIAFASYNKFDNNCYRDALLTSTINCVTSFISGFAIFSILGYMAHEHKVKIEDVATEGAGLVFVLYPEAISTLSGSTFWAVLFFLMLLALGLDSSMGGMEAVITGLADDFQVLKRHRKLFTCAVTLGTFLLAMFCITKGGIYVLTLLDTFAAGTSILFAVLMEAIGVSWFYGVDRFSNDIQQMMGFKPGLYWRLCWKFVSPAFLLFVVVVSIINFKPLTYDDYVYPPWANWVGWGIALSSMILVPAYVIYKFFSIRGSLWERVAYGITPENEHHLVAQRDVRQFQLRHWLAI
T3 sequence (P31652 whole entry): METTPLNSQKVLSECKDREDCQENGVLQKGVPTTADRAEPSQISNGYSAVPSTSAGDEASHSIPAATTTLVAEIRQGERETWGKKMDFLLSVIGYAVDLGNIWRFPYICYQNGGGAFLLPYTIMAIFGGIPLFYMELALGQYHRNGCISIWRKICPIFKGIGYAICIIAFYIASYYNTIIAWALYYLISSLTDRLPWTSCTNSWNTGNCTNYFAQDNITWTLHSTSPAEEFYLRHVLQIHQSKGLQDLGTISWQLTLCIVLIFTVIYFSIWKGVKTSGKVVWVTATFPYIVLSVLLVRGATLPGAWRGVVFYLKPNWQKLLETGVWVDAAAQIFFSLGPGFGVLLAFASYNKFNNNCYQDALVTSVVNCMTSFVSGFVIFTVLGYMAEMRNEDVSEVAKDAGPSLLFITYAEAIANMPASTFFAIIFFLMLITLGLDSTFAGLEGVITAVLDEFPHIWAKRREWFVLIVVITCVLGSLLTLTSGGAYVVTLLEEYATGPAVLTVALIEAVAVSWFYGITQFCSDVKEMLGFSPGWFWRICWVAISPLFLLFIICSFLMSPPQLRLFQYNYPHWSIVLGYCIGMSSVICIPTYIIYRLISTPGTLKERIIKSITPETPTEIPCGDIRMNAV

`CCCCC(C)CCC(=O)N1CCc2nc(NC(=O)c3cccc4ccccc34)ncc2C1` (stereo not drawn) [Example 193, naphthalene-1-carboxylic acid [6-(4-methyl-octanoyl)-5,6,7,8-tetrahydro-pyrido[4,3-d]pyrimidin-2-yl]-amide] showed an inhibition at 10 µM (NA transporter) of 43%, an inhibition at 10 µM (mGluR5 receptor) of 51.8% and an inhibition at 1 µM (5-HT transporter) of 38%.
Work on `Cc1ccc(C(=O)Nc2ncc3c(n2)CCN(C(=O)COc2cccc(Cl)c2)C3)cc1` [Example 189, N-{6-[2-(3-chloro-phenoxy)-acetyl]-5,6,7,8-tetrahydro-pyrido[4,3-d]pyrimidin-2-yl}-4-methyl-benzamide] yielded an inhibition at 10 µM (NA transporter) of 53%, an inhibition at 10 µM (mGluR5 receptor) of 39.5% and an inhibition at 1 µM (5-HT transporter) of 46%.
Work on `O=C(Nc1ncc2c(n1)CCN(C(=O)c1ccc(Cl)c(Cl)c1)C2)c1ccccc1F` [Example 113, N-[6-(3,4-dichloro-benzoyl)-5,6,7,8-tetrahydro-pyrido[4,3-d]pyrimidin-2-yl]-2-fluoro-benzamide] yielded an inhibition at 10 µM (NA transporter) of 67%, an inhibition at 10 µM (mGluR5 receptor) of 31.3% and an inhibition at 1 µM (5-HT transporter) of 45%.
